The source made the active and inactive calls. The rule behind the calls is not given here.
How the values were obtained:
[1] = Metal chelating activity assessed as compound-Zn2+ complex formation by measuring new peak formation by fluorescence emission spectral analysis
[2] = Metal chelating activity assessed as compound-Cu2+ complex formation by fluorescence emission spectral analysis
[3] = Metal chelating activity assessed as compound-Fe3+ complex formation by measuring decrease in fluorescence intensity by fluorescence emission spectral analysis
[4] = target: Amyloid-beta precursor protein (Homo sapiens) (UniProt P05067); assay: Inhibition of amyloid beta (1 to 42) (unknown origin) self aggregation at 25 uM by Thioflavin T based fluorometric assay
Amyloid-beta precursor protein (Homo sapiens), sequence (P05067 whole entry): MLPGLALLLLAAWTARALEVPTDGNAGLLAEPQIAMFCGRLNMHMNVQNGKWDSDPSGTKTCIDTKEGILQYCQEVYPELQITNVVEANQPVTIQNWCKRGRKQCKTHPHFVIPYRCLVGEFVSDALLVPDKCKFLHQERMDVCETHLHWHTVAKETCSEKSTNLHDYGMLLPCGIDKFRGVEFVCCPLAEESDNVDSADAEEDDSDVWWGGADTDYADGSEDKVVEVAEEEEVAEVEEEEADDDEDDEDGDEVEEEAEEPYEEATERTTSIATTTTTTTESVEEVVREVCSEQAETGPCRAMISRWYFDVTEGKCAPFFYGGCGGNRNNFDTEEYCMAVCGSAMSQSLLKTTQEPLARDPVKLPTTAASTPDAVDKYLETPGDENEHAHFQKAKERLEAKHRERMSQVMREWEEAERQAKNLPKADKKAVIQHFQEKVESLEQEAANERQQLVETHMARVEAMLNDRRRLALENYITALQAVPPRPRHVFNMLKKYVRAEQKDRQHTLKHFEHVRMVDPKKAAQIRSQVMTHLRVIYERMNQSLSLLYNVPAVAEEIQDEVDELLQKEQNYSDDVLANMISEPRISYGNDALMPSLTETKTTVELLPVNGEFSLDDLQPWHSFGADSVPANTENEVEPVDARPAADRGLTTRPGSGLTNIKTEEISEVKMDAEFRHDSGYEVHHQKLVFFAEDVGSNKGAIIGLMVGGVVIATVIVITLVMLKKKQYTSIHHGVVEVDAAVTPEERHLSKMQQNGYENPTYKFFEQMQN

[5] = target: T1, Cholinesterase (Equus caballus, UniProt P81908)
T1 sequence (P81908 whole entry): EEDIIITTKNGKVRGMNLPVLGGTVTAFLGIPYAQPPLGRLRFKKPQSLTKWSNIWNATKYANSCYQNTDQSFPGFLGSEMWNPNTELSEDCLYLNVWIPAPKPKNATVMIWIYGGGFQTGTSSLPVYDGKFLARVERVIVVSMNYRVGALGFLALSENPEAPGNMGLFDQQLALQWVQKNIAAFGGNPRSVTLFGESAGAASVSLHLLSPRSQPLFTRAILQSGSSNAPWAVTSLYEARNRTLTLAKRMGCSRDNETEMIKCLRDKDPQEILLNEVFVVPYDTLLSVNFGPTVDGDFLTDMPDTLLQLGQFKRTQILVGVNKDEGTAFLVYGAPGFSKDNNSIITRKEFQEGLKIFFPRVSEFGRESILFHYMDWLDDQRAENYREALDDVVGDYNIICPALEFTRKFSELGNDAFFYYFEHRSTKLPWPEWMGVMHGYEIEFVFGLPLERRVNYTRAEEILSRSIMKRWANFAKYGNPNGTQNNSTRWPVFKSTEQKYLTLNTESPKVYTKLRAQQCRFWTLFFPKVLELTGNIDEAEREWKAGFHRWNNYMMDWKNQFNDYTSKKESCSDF
Description: Inhibition of equine serum BuChE by Ellman's method

[6] = Metal chelating activity assessed as Cu2+-complex formation by measuring inhibition of Cu2+ induced amyloid beta (1 to 42) aggregation at 25 uM by Thioflavin T based fluorometric assay
[7] = target: Acetylcholinesterase (Electrophorus electricus, UniProt O42275); assay: Inhibition of electric eel AChE by Ellman's method
Acetylcholinesterase, sequence (O42275 whole entry): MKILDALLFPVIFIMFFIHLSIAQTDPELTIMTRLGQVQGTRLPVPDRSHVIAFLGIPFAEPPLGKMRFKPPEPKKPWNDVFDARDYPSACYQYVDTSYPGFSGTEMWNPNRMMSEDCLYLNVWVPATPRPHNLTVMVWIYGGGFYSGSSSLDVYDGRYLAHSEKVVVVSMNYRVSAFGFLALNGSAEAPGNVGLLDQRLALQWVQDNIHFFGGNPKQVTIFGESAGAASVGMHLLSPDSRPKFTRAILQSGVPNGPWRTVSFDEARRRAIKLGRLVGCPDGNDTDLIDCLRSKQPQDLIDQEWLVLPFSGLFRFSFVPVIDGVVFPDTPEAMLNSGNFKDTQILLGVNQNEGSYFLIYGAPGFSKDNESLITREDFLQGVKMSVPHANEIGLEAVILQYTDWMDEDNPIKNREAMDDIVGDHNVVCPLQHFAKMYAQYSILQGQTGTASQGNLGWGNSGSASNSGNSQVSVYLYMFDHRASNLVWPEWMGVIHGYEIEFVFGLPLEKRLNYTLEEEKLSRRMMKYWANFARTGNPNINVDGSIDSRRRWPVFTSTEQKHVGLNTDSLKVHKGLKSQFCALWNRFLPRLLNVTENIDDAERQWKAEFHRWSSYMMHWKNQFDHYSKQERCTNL

[8] = Metal chelating activity assessed as compound-Cu2+ complex formation by UV spectrophotometric analysis
[9] = Metal chelating activity assessed as compound-Zn2+ complex formation by UV spectrophotometric analysis
[10] = Metal chelating activity assessed as compound-Fe3+ complex formation by UV spectrophotometric analysis
[11] = Antioxidant activity assessed as superoxide anion radical scavenging activity by measuring reduction in anode current by cyclic voltammetry; format: functional
[12] = Antioxidant activity assessed as superoxide anion radical scavenging activity by measuring reduction in cathode current by cyclic voltammetry; format: functional
[13] = target: T1, Cholinesterase; assay: (§1) Mixed type inhibition of equine serum BuChE by double reciprocal analysis; format: cell-free
[14] = target: Cholinesterase (Equus caballus) (UniProt P81908); assay: as §1; format: cell-free
Cholinesterase (Equus caballus), sequence (P81908 whole entry): as the sequence (P81908 whole entry) above

[15] = target: Cholinesterase (Equus caballus) (UniProt P81908); assay: Mixed type inhibition of equine serum BuChE assessed as decrease in Vmax with increase in Km by Lineweaver-Burk plot analysis; format: cell-free

Q: For O=C1CC(c2ccc(O)cc2)Oc2cc(OC(=O)N3CCOCC3)cc(O)c21 (centres undefined), which Activity [1] is on record?
A: Active

Q: And the Activity [2]?
A: inactive

Q: And the Activity [3]?
A: Active

Q: And the inhibition [4]?
A: 62.3%

Q: And the IC50 [5]?
A: 13.7 µM

Q: What about the inhibition [6] of the same compound?
A: 60.9%

Q: What about the IC50 [7] of the same compound?
A: 12.9 µM

Q: What about the Activity [8] of the same compound?
A: Active

Q: Which results are given for CCN(C)C(=O)Oc1cc(O)c2c(c1)OC(c1ccc(O)cc1)CC2=O (centres undefined)?
A: Activity [1]: Active; Activity [2]: inactive; Activity [9]: Active; Activity [3]: Active; inhibition [4]: 66.5%; IC50 [5]: 3.42 µM; inhibition [6]: 65.5%; IC50 [7]: 28.3 µM; Activity [8]: Active

Q: Which inhibition [6] does the source give for COc1cc(/C=C/C(=O)CC(=O)/C=C/c2ccc(O)c(OC)c2)ccc1O here?
A: 73.3%

Q: What does the source list for CN(C)C(=O)Oc1ccc(C2CC(=O)c3c(O)cc(OC(=O)N(C)C)cc3O2)cc1 (centres undefined)?
A: Activity [10]: Active; Activity [1]: Active; Activity [2]: inactive; Activity [9]: Active; Activity [3]: Active; inhibition [4]: 62.4%; IC50 [5]: 12.2 µM; inhibition [6]: 53.5%; IC50 [7]: 23.9 µM; Activity [8]: Active

Q: What does the source list for O=C1C[C@@H](c2ccc(O)cc2)Oc2cc(O)cc(O)c21 [NARINGENIN]?
A: Activity [11]: Active; Activity [12]: Active; inhibition [4]: 44.9%; IC50 [5]: > 100 µM; inhibition [6]: 69.2%; IC50 [7]: > 100 µM

Q: Which results are given for O=C1CC(c2ccc(O)cc2)Oc2cc(OC(=O)N3CCCCC3)cc(O)c21 (centres undefined)?
A: Activity [10]: Active; Activity [1]: Active; Activity [2]: inactive; Activity [11]: Active; Activity [9]: Active; Activity [3]: Active; Activity [12]: Active; inhibition [4]: 36.1%; IC50 [5]: 0.094 µM; inhibition [6]: 61.1%; IC50 [7]: 62.5 µM; Ki [13]: 1.6 µM; Ks [14]: 0.469 µM; Activity [8]: Active; inhibition [15]: Active
